Drawing on ChEMBL document CHEMBL5260810, “Inhibition of bromodomain-containing protein 9 for the prevention of epigenetically-defined drug resistance” (Bioorg Med Chem Lett, 2017), this text covers IC50, Kd and inhibition for two molecules.

The first assay concerns EB2. The assay is described as follows: Cytotoxicity against human EB2 cells measured after 8 days. In kind it is functional, cell-based. Conditions: EB2, 192 h.
Take `C/C=C/Cn1cc(-c2ccc(C(=O)N3CCOCC3)cc2)c2cc[nH]c2c1=O`: the IC50 worked out at 20 µM.

For another assay, the system named is HEL. As to the kind of experiment: Cytotoxicity against human HEL cells measured after 8 days. In kind it is functional, cell-based. Conditions: 192 h.
As for `C/C=C/Cn1cc(-c2ccc(C(=O)N3CCOCC3)cc2)c2cc[nH]c2c1=O`, half-maximal inhibition (IC50) required 18 µM.

In another assay the test system is NCI-H1944. The assay is described as follows: Cytotoxicity against human NCI-H1944 cells measured after 8 days. Conditions: NCI-H1944, 192 h. In kind it is functional, cell-based.
For the molecule `C/C=C/Cn1cc(-c2ccc(C(=O)N3CCOCC3)cc2)c2cc[nH]c2c1=O`, the midpoint of inhibition, the IC50, lay at 20 µM. In other words, the double-digit micromolar range.

In the next assay the test system is NCI-H2122. As to the kind of experiment: Cytotoxicity against human NCI-H2122 cells measured after 8 days. Conditions: NCI-H2122, 192 h. In kind it is functional, cell-based.
The molecule `C/C=C/Cn1cc(-c2ccc(C(=O)N3CCOCC3)cc2)c2cc[nH]c2c1=O` showed an IC50 of 20 µM.

System in another assay: not listed separately
As to the kind of experiment: Cytotoxicity against human NCI-H322T cells measured after 8 days. Conditions: 192 h. In kind it is functional, cell-based.
Regarding `C/C=C/Cn1cc(-c2ccc(C(=O)N3CCOCC3)cc2)c2cc[nH]c2c1=O`, the IC50 is 20 µM. In other words, the double-digit micromolar range.

A further assay deals with CAMA-1. As to the kind of experiment: Cytotoxicity against human CAMA-1 cells measured after 8 days. In kind it is functional, cell-based. Conditions: CAMA-1, 192 h.
Consider `C/C=C/Cn1cc(-c2ccc(C(=O)N3CCOCC3)cc2)c2cc[nH]c2c1=O`, for which the IC50 came out at 20 µM.

For the next assay, the system named is HCC1937. The assay is described as follows: Cytotoxicity against human HCC1937 cells measured after 8 days. In kind it is functional, cell-based. Conditions: HCC1937, 192 h.
The molecule `C/C=C/Cn1cc(-c2ccc(C(=O)N3CCOCC3)cc2)c2cc[nH]c2c1=O` displayed an IC50 of 20 µM.

The test system of the next assay is MDA-MB-468. As to the kind of experiment: Cytotoxicity against human MDA-MB-468 cells measured after 8 days. In kind it is functional, cell-based. Conditions: MDA-MB-468, 192 h.
The molecule `C/C=C/Cn1cc(-c2ccc(C(=O)N3CCOCC3)cc2)c2cc[nH]c2c1=O` displayed an IC50 of 20 µM. This lies in the double-digit micromolar range.

The subject of another assay is DAN-G. The assay is described as follows: Cytotoxicity against human DAN-G cells measured after 8 days. Conditions: 192 h. In kind it is functional, cell-based.
For `C/C=C/Cn1cc(-c2ccc(C(=O)N3CCOCC3)cc2)c2cc[nH]c2c1=O`, the IC50 is 20 µM.

Another assay has as its system YMB-1-E. As to the kind of experiment: Cytotoxicity against human YMB-1-E cells measured after 8 days. In kind it is functional, cell-based. Conditions: 192 h.
As to `C/C=C/Cn1cc(-c2ccc(C(=O)N3CCOCC3)cc2)c2cc[nH]c2c1=O`, the IC50 was 20 µM.

The test system of the next assay is COLO 320DM. As to the kind of experiment: Cytotoxicity against human COLO 320DM cells measured after 8 days. In kind it is functional, cell-based. Conditions: 192 h.
The molecule `C/C=C/Cn1cc(-c2ccc(C(=O)N3CCOCC3)cc2)c2cc[nH]c2c1=O` had an IC50 of 20 µM.

The next assay concerns DU-145. As to the kind of experiment: Cytotoxicity against human DU-145 cells measured after 8 days. Conditions: DU-145, 192 h. In kind it is functional, cell-based.
Take `C/C=C/Cn1cc(-c2ccc(C(=O)N3CCOCC3)cc2)c2cc[nH]c2c1=O`: the IC50 stood at 20 µM.

In a further assay the test system is SW948. The assay is described as follows: Cytotoxicity against human SW948 cells measured after 8 days. Conditions: SW948, 192 h. In kind it is functional, cell-based.
In turn, `C/C=C/Cn1cc(-c2ccc(C(=O)N3CCOCC3)cc2)c2cc[nH]c2c1=O` came in with an IC50 of 20 µM.

System in the next assay: not listed separately
As to the kind of experiment: Cytotoxicity against human KE-97 cells measured after 8 days. In kind it is functional, cell-based. Conditions: KE-97, 192 h.
The molecule `C/C=C/Cn1cc(-c2ccc(C(=O)N3CCOCC3)cc2)c2cc[nH]c2c1=O` came in with an IC50 of 20 µM.

In the next assay the test system is DV-90. As to the kind of experiment: Cytotoxicity against human DV-90 cells measured after 8 days. In kind it is functional, cell-based. Conditions: DV-90, 192 h.
`C/C=C/Cn1cc(-c2ccc(C(=O)N3CCOCC3)cc2)c2cc[nH]c2c1=O` returned an IC50 of 20 µM.

System in a further assay: not listed separately
As to the kind of experiment: Cytotoxicity against human HCC4019 cells measured after 8 days. Conditions: HCC4019, 192 h. In kind it is functional, cell-based.
Regarding `C/C=C/Cn1cc(-c2ccc(C(=O)N3CCOCC3)cc2)c2cc[nH]c2c1=O`, it took 20 µM to reach half-maximal inhibition (IC50). In other words, the double-digit micromolar range.

The target in a further assay is T1, Bromodomain and PHD finger-containing protein 3 (Homo sapiens, UniProt Q9ULD4).
T1 sequence (Q9ULD4 whole entry): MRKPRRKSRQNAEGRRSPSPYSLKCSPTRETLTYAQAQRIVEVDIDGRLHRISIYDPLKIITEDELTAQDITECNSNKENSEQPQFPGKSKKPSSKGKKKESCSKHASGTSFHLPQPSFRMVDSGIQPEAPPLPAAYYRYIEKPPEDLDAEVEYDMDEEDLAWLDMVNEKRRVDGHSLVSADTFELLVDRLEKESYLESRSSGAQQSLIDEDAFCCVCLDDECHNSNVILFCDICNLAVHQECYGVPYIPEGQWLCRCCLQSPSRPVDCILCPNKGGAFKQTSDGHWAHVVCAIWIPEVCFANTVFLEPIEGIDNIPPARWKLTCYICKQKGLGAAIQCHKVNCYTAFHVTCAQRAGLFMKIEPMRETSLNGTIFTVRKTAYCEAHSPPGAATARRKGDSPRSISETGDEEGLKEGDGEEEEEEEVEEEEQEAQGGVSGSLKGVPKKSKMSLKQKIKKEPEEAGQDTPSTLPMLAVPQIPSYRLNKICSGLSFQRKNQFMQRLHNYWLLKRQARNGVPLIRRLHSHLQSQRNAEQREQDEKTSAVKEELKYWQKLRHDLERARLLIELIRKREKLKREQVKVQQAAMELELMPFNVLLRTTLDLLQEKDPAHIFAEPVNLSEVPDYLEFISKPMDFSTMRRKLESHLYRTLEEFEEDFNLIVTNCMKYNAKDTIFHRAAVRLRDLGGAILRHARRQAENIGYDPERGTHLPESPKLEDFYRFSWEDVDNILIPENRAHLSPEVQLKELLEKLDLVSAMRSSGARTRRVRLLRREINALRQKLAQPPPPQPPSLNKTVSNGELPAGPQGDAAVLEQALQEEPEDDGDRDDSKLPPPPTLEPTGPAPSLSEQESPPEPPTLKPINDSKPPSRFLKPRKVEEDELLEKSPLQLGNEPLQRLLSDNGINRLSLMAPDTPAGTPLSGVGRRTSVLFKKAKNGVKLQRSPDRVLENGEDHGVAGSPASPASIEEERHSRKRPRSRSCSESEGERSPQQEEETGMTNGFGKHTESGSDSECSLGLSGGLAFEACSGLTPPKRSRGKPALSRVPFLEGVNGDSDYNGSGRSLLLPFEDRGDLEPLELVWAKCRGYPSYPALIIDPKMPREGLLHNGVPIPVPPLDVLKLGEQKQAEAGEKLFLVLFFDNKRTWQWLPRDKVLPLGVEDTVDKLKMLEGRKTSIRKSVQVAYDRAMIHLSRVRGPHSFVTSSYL
As to the kind of experiment: Binding affinity to human partial length BRPF3 (E588 to G701 residues) expressed in bacterial expression system by BROMOscan assay.
Details: not given
As for `C/C=C/Cn1cc(-c2cc(OC)c(C(C)(C)O)cc2OC)c2cc(C)[nH]c2c1=O`, the Kd was greater than 10 µM.

Molecule `C/C=C/Cn1cc(-c2ccc(C(=O)N3CCOCC3)cc2)c2cc[nH]c2c1=O` came in with a Kd greater than 10 µM.

The next assay deals with Histone acetyltransferase p300 (Homo sapiens, UniProt Q09472). As to the kind of experiment: Binding affinity to human partial length EP300 (A1040 to G1161 residues) expressed in bacterial expression system by BROMOscan assay.
Chain of Histone acetyltransferase p300 (Q09472 whole entry, the tested form may be a part): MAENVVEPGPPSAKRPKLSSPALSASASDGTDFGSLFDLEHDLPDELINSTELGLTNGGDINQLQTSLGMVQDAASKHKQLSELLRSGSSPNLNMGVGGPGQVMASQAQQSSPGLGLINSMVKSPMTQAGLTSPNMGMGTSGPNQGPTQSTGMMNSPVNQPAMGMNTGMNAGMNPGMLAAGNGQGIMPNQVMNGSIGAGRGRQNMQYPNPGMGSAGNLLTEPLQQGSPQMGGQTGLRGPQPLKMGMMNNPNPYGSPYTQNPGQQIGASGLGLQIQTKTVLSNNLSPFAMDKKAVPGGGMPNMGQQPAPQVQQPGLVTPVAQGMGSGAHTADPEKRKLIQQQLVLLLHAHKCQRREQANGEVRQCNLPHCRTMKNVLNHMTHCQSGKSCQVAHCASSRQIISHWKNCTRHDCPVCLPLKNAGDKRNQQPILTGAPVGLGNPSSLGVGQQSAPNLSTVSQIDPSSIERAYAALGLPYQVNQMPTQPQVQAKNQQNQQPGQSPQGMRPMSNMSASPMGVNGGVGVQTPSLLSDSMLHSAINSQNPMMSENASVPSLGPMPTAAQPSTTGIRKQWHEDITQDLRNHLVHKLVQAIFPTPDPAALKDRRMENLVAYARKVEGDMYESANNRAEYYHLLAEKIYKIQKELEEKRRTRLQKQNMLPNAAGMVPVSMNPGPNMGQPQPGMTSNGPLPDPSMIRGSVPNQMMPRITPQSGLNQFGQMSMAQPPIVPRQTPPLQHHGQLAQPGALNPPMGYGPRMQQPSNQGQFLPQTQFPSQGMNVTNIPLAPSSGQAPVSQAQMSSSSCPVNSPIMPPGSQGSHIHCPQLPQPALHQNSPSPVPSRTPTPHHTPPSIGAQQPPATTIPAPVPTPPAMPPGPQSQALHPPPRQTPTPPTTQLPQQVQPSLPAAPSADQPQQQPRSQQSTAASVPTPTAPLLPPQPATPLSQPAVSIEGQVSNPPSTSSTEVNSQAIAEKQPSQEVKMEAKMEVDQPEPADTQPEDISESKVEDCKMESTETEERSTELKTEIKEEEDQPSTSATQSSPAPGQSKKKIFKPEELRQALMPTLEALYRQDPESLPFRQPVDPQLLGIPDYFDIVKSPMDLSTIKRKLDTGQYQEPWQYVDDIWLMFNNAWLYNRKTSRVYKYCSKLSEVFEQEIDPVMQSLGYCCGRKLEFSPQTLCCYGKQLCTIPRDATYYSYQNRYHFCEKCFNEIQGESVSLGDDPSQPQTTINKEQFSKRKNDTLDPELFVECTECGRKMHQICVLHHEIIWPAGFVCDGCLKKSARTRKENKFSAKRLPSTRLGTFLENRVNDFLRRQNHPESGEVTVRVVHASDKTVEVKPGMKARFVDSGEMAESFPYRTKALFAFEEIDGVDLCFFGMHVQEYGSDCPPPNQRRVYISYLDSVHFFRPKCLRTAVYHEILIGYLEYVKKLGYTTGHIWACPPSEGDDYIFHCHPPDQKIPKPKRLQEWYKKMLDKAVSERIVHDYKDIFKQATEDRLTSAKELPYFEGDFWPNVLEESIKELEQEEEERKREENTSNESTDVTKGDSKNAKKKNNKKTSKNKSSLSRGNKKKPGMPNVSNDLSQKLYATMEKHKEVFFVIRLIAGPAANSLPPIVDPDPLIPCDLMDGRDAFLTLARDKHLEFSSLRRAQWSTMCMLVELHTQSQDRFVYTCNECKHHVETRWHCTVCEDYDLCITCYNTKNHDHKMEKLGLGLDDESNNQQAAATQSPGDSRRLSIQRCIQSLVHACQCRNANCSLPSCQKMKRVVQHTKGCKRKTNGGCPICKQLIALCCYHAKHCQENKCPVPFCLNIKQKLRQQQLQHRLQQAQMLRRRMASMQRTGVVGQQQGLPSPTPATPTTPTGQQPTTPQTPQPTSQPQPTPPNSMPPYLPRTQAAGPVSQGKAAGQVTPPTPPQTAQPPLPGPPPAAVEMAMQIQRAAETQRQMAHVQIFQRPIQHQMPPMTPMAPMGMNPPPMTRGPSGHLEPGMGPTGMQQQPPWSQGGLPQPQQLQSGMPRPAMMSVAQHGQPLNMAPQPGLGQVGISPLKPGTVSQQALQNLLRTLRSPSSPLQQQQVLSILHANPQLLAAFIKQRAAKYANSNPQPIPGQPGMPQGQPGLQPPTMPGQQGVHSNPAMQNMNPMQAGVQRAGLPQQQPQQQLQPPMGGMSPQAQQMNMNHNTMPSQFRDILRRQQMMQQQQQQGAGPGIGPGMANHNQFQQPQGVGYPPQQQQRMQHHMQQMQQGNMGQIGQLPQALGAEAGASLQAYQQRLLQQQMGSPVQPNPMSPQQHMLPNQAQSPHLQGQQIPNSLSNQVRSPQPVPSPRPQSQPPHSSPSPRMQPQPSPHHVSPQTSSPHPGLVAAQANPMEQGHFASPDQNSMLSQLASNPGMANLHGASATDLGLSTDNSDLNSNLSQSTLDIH
Details: not given
As for `C/C=C/Cn1cc(-c2cc(OC)c(C(C)(C)O)cc2OC)c2cc(C)[nH]c2c1=O`, the Kd was greater than 10 µM.

For the molecule `C/C=C/Cn1cc(-c2ccc(C(=O)N3CCOCC3)cc2)c2cc[nH]c2c1=O`, the Kd was greater than 10 µM.

In the next assay the target is T2, Ephrin type-A receptor 1 (Homo sapiens) (UniProt P21709).
T2 sequence (whole entry): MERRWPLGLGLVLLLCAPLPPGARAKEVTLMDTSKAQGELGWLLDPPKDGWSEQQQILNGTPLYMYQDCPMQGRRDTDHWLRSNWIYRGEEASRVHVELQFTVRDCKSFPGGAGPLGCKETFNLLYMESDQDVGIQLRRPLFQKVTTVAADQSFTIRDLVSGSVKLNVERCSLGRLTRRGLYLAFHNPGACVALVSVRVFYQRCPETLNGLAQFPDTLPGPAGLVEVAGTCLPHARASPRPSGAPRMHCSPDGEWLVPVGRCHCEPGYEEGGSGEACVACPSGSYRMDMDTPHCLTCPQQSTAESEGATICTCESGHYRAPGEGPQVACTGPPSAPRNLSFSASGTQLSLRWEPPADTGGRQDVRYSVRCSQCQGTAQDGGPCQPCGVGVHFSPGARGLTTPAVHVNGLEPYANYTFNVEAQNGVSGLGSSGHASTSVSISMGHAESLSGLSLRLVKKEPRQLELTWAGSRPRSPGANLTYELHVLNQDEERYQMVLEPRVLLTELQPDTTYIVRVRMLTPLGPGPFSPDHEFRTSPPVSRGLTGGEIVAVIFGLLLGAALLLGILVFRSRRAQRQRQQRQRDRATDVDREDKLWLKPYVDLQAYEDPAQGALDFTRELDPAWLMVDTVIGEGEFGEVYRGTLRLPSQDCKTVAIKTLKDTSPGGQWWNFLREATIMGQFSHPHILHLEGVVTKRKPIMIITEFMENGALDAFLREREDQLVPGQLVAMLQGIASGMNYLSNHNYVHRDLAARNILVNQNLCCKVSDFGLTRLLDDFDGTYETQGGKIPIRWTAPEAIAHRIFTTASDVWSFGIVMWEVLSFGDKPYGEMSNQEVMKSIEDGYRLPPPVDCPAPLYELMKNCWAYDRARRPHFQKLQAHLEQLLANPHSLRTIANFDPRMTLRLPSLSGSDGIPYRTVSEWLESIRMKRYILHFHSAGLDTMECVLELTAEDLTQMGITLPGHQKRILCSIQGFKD
As to the kind of experiment: Inhibition of EphA1 (unknown origin) at 1 uM relative to control.
Details: not given
As to `C/C=C/Cn1cc(-c2ccc(C(=O)N3CCOCC3)cc2)c2cc[nH]c2c1=O`, the inhibition stood at 0.8%.

Usually IC50 stands for the concentration that gives 50% inhibition. Read a high IC50 as weaker potency in that assay. For orientation: Kd means the concentration at which binding is half-saturated. By inhibition is commonly meant the relative decrease from the control value, in per cent. Low values mean little suppression, high ones strong suppression.
